Data as given in US12714709B2, “Pharmaceutical compositions comprising 2-[(4S)-8-fluoro-2-[4-(3-methoxyphenyl)piperazin-1-yl]-3-[2-methoxy-5-(trifluoromethyl)phenyl]-4H-quinazolin-4-yl]acetate and sodium ions” (priority 2020, dated 2026).
Where a name gives a salt, the structure may show the parent alone. Read-outs that look alike come from different tables or passages of the source.

Columns and labels:
[1] = pH of letermovir forms and of letermovir free base with NaOH equivalents in water; assay type: physicochemical; details: for Initial pH / pH after 1 week: no NaOH added
Experimental: The pH value of the samples was measured with a calibrated pH meter EUTEGH CAKTON PH/Ion 510 Serial n° 172361 with a Polilyte lab electrode. The sample is stirred and the electrode is introduced. A measurement is performed until the pH value is stable. Between measurements the electrode is thoroughly rinsed with water. The pH measurements were performed with an analysis volume of ~1-2 mL and a defined temperature of 22° C.±3° C. A 3-point calibration of the pH meter was performed on a daily basis, by using buffers with pH 7.00, pH 4.01 and pH 10.01 (Hamilton Duracal buffer).
(§1) A first set of letermovir samples was prepared by dissolving letermovir free base, letermovir sodium salt amorphous, letermovir sodium salt trihydrate or letermovir sodium salt monohydrate in water to prepare the solutions with the concentration of 20 mg/mL and 100 mg/mL with respect to letermovir free base in order to determine the differences in the pH immediately after dissolution and after 1 week and to check precipitation effects and solubility.
A second set of samples was prepared by adding different equivalents of sodium hydroxide (0.84, 0.86, 0.88 and 0.9 eq.) to letermovir free base solutions. Blank solutions with the same amounts of water and sodium hydroxide equivalents and without letermovir were also prepared for comparative reasons.
(§2) Procedure: The corresponding amount of water was added to each sample with further addition of the respective equivalents of 1 M aqueous NaOH to the samples of second set (Table 4, Table 5 and Table 6). No addition of NaOH was applied to the first set of samples.
(§3) The suspensions were stirred at room temperature and the pH was determined immediately after the preparation and after 1 week. The solubility and precipitation effects were also checked (Table 7, Table 8 and Table 9). […]

[2] = Solubility/precipitation in water, visual inspection; assay type: physicochemical; details: for precipitation effects / dissolution over time, visual inspection: in water without sodium hydroxide, 20 and 100 mg/mL, over 1 week
Experimental: as §1, with “solubility. […]” for “solubility.”
as §2, §3

[3] = 20 mg/ml with respect to free base in water
[4] = 100 mg/ml with respect to free base in water
[5] = 20 mg/ml with respect to free base in water, Monohydrate
[6] = 100 mg/ml with respect to free base in water, Monohydrate
[7] = 20 mg/ml with respect to free base in water, Trihydrate
[8] = 100 mg/ml with respect to free base in water, Trihydrate

SMILES: COc1cccc(N2CCN(C3=Nc4c(F)cccc4[C@H](CC(=O)O)N3c3cc(C(F)(F)F)ccc3OC)CC2)c1 [Free Base, 2-[(4S)-8-fluoro-2-[4-(3-methoxyphenyl)-piperazin-1-yl]-3-[2-methoxy-5-(trifluoromethyl)phenyl]-4H-quinazolin-4-yl]acetic acid]
- Initial pH [1, 3]: 6.1
- pH after 1 week [1, 3]: 6.1
- Initial pH [1, 4]: 6.3
- pH after 1 week [1, 4]: 6.2
- pH values of the solutions/suspension in water ([1]; in water without sodium hydroxide, 20 and 100 mg/mL, initial and after 1 week, listed as letermovir free base): around 6
- Solubility/Precipitation ([2]; 20 mg/ml with respect to free base in water, no NaOH added): Insoluble
- Solubility/Precipitation ([2]; 100 mg/ml with respect to free base in water, no NaOH added): Insoluble
- precipitation effects / dissolution over time, visual inspection ([2]; listed as letermovir free base): did not dissolve

SMILES: COc1cccc(N2CCN(C3=Nc4c(F)cccc4[C@H](CC(=O)O)N3c3cc(C(F)(F)F)ccc3OC)CC2)c1 [Sodium Salt Monohydrate]
- Initial pH [1, 5]: 9.2
- pH after 1 week [1, 5]: 8.9
- Initial pH [1, 6]: 9.2
- pH after 1 week [1, 6]: 9.0
- Solubility/Precipitation ([2]; 20 mg/ml with respect to free base in water, no NaOH added, Monohydrate): Clear solution
- Solubility/Precipitation ([2]; 100 mg/ml with respect to free base in water, no NaOH added, Monohydrate): Clear solution
- precipitation effects / dissolution over time, visual inspection ([2]; listed as letermovir sodium salt monohydrate, Monohydrate): completely clear without precipitation effects

SMILES: COc1cccc(N2CCN(C3=Nc4c(F)cccc4[C@H](CC(=O)[O-])N3c3cc(C(F)(F)F)ccc3OC)CC2)c1.[Na+] [Sodium Salt Amorphous]
- Initial pH [1, 3]: 9.2
- pH after 1 week [1, 3]: 9.0
- Initial pH [1, 4]: 9.3
- pH after 1 week [1, 4]: 9.1
- Solubility/Precipitation [2]: Clear solution
- precipitation effects / dissolution over time, visual inspection [2]: completely clear without precipitation effects

SMILES: COc1cccc(N2CCN(C3=Nc4c(F)cccc4[C@H](CC(=O)O)N3c3cc(C(F)(F)F)ccc3OC)CC2)c1 [Sodium Salt Trihydrate]
- Initial pH [1, 7]: 9.5
- pH after 1 week [1, 7]: 9.2
- Initial pH [1, 8]: 9.5
- pH after 1 week [1, 8]: 9.2
- Solubility/Precipitation ([2]; 20 mg/ml with respect to free base in water, no NaOH added, Trihydrate): Clear solution
- Solubility/Precipitation ([2]; 100 mg/ml with respect to free base in water, no NaOH added, Trihydrate): Clear solution
- precipitation effects / dissolution over time, visual inspection ([2]; listed as letermovir sodium dalt trihydrate, Trihydrate): completely clear without precipitation effects
